The numbers were not newly measured in patent US20220184087A1, “METHODS AND COMPOSITIONS RELATING TO TREATMENT OF CANCER” (The Penn State Research Foundation, priority 2019, published 2022), which cites them from elsewhere.

Data set [1] concerns murine head and neck cancer cells.
For data set [2], the system named is human head and neck cancer cells.
For another data set, the target named is T1, MDM4 (Homo sapiens, UniProt O15151).
T1 sequence (O15151 1-490): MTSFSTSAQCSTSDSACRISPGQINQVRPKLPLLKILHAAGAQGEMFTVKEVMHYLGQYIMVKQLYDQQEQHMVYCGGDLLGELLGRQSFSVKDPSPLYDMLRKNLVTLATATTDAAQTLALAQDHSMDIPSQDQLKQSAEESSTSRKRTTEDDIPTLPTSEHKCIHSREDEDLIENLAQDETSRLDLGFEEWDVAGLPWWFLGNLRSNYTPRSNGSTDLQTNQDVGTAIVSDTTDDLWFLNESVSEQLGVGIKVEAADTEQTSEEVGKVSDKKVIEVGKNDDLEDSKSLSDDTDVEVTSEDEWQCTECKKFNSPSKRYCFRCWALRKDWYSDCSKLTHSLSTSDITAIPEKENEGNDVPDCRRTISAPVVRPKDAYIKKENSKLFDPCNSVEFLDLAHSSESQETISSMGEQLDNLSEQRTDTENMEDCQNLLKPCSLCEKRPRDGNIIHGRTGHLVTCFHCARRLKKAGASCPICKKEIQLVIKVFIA
Particulars: within p53-binding pocket.

The subject of a further data set is melanoma. The settings on record: melanoma patients.

Consider `C=CCn1c(=O)c2cnc(Nc3ccc(N4CCN(C)CC4)cc3)nc2n1-c1cccc(C(C)(C)O)n1` [MK1775, 2-allyl-1-(6-(2-hydroxypropan-2-yl)pyridin-2-yl)-6-((4-(4-methylpiperazin-1-yl)phenyl)amino)-1H-pyrazolo[3,4-d]pyrimidin-3(2H)-one], for which the “sensitization to NK lysis” value in data set [1] and in data set [2] was “sensitized” each time.
For the compound `CCOc1cc(/C=C2/C(=O)N(c3ccccc3)N=C2C)cc(Cl)c1OCC(=O)OC` [SJ-172550], the “binding affinity to MDM4” value on MDM4 is “high affinity”.
Regarding “ipilimumab: anti-CTLA4 immune checkpoint inhibitor antibody”, in the data set with melanoma, the “median PFS” value is listed as 2.9 months.
Take “nivolumab: anti-PD-1 immune checkpoint inhibitor antibody”: the “median PFS” value in the data set on melanoma is listed as 6.9 months.
